Here are results for four compounds from patent US6455271B1, “Identification of novel antimicrobial agents using membrane potential indicator dyes” (XOMA Technology, Ltd, priority 1998, dated 2002).

Series [1] deals with Madin-Derby canine kidney epithelial (MDCK) cells. The method, then:
The same procedure was also carried out using mammalian Madin-Derby canine kidney epithelial (MDCK) cells (ATCC Accession No. CCL34). The MDCK cells were cultured until confluent in MEM media supplemented with 10% fetal calf serum (FCS) and L-glutamine. The cells were harvested and resuspended to approximately 1-2×10^6 cells/mL in RPMI media, treated with XMP.391 or XMP.445 at concentrations varying from 5 μg/mL to 100 μg/mL, and incubated for 1 hour. The cells were then stained with DiOC6(3) for 30 minutes and fluorescence intensity was determined in the same manner as described above for C. albicans.
(§1) The relative effect of varying concentrations of the antifungal agent miconazole on fungal C. albicans cells treated with membrane potential indicator dye DiOC6(3) [Molecular Probes], mammalian MDCK cells treated with DiOC6(3) and mammalian MDCK cells treated with PI, was assessed as described above in Examples 1 and 2, except that fungal C. albicans or mammalian MDCK cells were resuspended to a concentration of 1×10^6 cells/mL.

In a further series the test system is C. albicans SLU#1 strain. It is filed as cell-based, Candida albicans.
In another series the test system is CACO-2 and MDCK cells. It is filed as in vitro ADME. The method, then:
Various BPI-derived peptides were screened for oral absorption in in vitro screening assays using CACO-2 and MDCK cells. Cultured monolayers of CACO-2 (Human colon carcinoma) [Audus, K. L., et al. Pharm. […] The cells were grown to confluency and allowed to differentiate. The integrity of the monolayers was determined by measuring the transepithelial resistance. The cells were incubated with peptide on the apical side for 2.5 hours in MDCK screening or 4 hours for CACO-2 screening. The transepithelial transport of the peptide was measured by quantitative HPLC analysis of the incubation media on the basolateral side of the cells. Radiolabelled mannitol and cortisone were used as positive controls.

The test system of a further series is Candida albicans, SLU-1. Put plainly: 28-day comparative survival efficacy study in mice systemically infected with Candida albicans, oral gavage. The series is classed as in vivo. Particulars: for mortality vs dextrose-treated controls: male DBA/2 mice, eight times, 28 days. As for the experimental part:
XMP.445 was tested for activity upon oral administration (oral activity) in a 28-day comparative survival efficacy study in mice systemically infected with Candida albicans. Specifically, male DBA/2 mice (Charles River Laboratories) six weeks of age were dosed with 7.9×10^4 Candida albicans, SLU-1 in 100 μl intravenously via the tail vein in a single dosage on day 0. Treatment began immediately thereafter with 400 μl oral gavage of either 0.5% dextrose, or XMP.445 in 0.5% dextrose at levels of either 10 mg/kg or 20 mg/kg every other day for a total of eight times. Amphotericin B (Fungizone®) was administered intravenously at 0.5 mg/kg as a positive control every other day for a total of eight times. Twice-day monitoring (once daily on weekends and holidays) for mortality was performed.

The test system of series [2] is Candida albicans strain SLU#1. As to the kind of experiment: Flow cytometry of fungal cells treated with test agent and membrane potential dye DiOC6(3). It is filed as cell-based. Particulars: for concentration at which loss of fungal cell viability occurs: C. albicans SLU#1; for change in DiOC6(3) fluorescence intensity (mean channel from baseline) vs. concentration: C. albicans, 1 hour incubation with agent, 10 ng/mL DiOC6(3), FL1 530 nm, FIG. 1 / FIG. 3. The method, then:
A stock fungal cell suspension was prepared as follows. Fungi (Candida albicans strain SLU#1) were cultured on Sabouraud's dextrose agar plates [1 L water, 10 g neopeptone, 20 g dextrose, 15 g Bacto Agar]. One or two colonies from the agar plate were inoculated into 5 mL of Sabouraud's dextrose broth (SDB) [1 L water, 10 g neopeptone, 20 g dextrose] in a sterile 10 mL polypropylene tube and incubated for about 18 hours at 30° C. After this incubation, 4 mL of the fungal culture was inoculated into a flask containing 100 mL of SDB and incubated for about 5 hours or until log growth phase was reached. The culture was centrifuged at 3000 rpm for 5 minutes (Sorvall RT6000B centrifuge), the supernatant was decanted and the pellets were resuspended in a total of 30 mL of SDB. Fungal cell concentration was determined either by absorbance at 570 nm or by diluting 1:10 with Trypan Blue and counting the number of fungal cells using a hemacytometer. The suspension was diluted with SDB to obtain a stock fungal cell suspension of approximately 1-2×10^6 CFU/mL.
Stock 1 mg/mL solutions of peptides XMP.391 and XMP.445 were prepared in saline, and six 2-fold serial dilutions were prepared using phosphate buffered saline (PBS). The fungal cell suspension was divided into 1 mL aliquots, and approximately 20 μL of each serial dilution of XMP.391 or XMP.445 peptide solution was added to an aliquot of fungal cell suspension to obtain final peptide concentrations of 0.313, 0.625, 1.25, 2.5, 5, 10 and 20 μg/mL in the aliquots. No peptide solution was added to the auto-fluorescence and baseline controls. The aliquots were incubated for 1 hour at 30° C. After the incubation, all aliquots were centrifuged at 3000 rpm for 5 minutes (Sorvall RT6000B) and the supernatant removed. The auto-fluorescence control aliquot was resuspended in 1 mL of SDB; the remainder of the samples and the baseline control were resuspended in 1 mL of 10 ng/mL DiOC6(3)/SDB. The auto-fluorescence control thus contained fungal cells in SDB alone (without XMP peptide and without dye), while the baseline control contained fungal cells with dye (but without XMP peptide). […]
The samples were analyzed for fluorescence on the FACScan flowcytometer [Becton-Dickinson, Mountain View, Calif.] using the fl1 detector at a wavelength of 530 nm using the following parameters:
The auto-fluorescence control was used for gating and fluorescence sensitivity was determined using the baseline control. The percent change in fluorescent intensity, expressed as mean channels, was determined by dividing the difference between the sample and baseline values by the baseline value: (sample fl1−baseline fl1)/baseline fl1×100.
In general terms: Flow cytometry measures light scatter and fluorescence of single cells or particles in a stream.

The subject of a further series is C. albicans SLU#1. Put plainly: Propidium iodide (PI) uptake by fungal cells, flow cytometry. The series is classed as cell-based, Candida albicans. Particulars: C. albicans SLU#1, 10 μg/mL PI, FL2 585 nm; FIG. 2.
Another series relates to fungal cells. As to the kind of experiment: Confocal microscopy localization of membrane potential indicator dye in fungal cells. The series is classed as cell-based. Particulars: DiOC6(3) 10 ng/mL or MitoTracker Red CM-H2Xros 1 μg/mL, 1 hour peptide incubation. As for the experimental part:
Confocal microscopy provides focused fluorescence detection, one plane or slice at a time, at a focus level that allows unobstructed localization of fluorescence within cells. A suspension of 1×10^6 fungal cells/mL was prepared as described above in Example 1 and 1 mL was dispensed into each of four Eppendorf microcentrifuge tubes. Two μL of 1 mg/mL XMP.445 (in saline) was added to two tubes and all four tubes were incubated for 1 hour at 30° C. After the incubation, all tubes were centrifuged in an Eppendorf 5415 centrifuge. The supernatant was removed and the pellet resuspended in 1 mL of SDB. The membrane potential indicator dye DiOC6(3) (diluted in SDB from a stock solution of 2 mg/mL in EtOH) was added to one set of peptide-treated and untreated tubes to a final concentration of 10 ng/mL. The membrane potential indicator dye MitoTracker™ Red CM-H2Xros (from a freshly prepared solution of 500 μg/mL in DMSO) was added to another set of peptide-treated and untreated tubes to a final concentration of 1 μg/mL. The tubes were incubated at 30° C. for 30 min. After the incubation the tubes were centrifuged and the supernatant removed. The pellets were resuspended in 100 μL of 30% glycerol/PBS solution. Three μL from each tube was pipetted onto a microscope slide with a No. 1 cover glass and placed onto a Zeiss 510 Confocal Microscope that uses LSM Version 2.01 software. […]

The subject of a further series is MDCK cells. The method, then: as §1
The conditions of series [3]: background statement; cited from earlier work.
Another series concerns bacterial growth. Particulars: background statement; cited from earlier work.

≈ marks a conversion by molar mass, not a printed value. Read-outs that look alike come from different tables or passages of the source. Square brackets hold non-standard residues; d marks the D form. Peptide text beside a SMILES is read from it.

As for `CC[C@H](C)[C@H](NC(=O)[C@H](CC(C)C)NC(=O)[C@H](Cc1c[nH]c2ccccc12)NC(=O)CNC(=O)[C@@H](NC(=O)[C@@H](N)CCCCN)C(C)C)C(=O)N[C@@H](CCC(N)=O)C(=O)N[C@@H](CC(C)C)C(=O)N[C@@H](Cc1ccccc1)C(=O)N[C@@H](Cc1c[nH]cn1)C(=O)N[C@@H](CCCCN)C(=O)N[C@@H](CCCCN)C(=O)O` [XMP.391] (H-KVGWLIQLFHKK-OH; N-terminus and C-terminus assumed), in series [1], the “change in DiOC6(3) fluorescence intensity in mammalian cells” value is listed as “no substantial increase in fluorescence intensity”. In addition, the minimum fungicidal concentration in the series on C. albicans SLU#1 strain was 2 µg/mL (≈ 1.34 µM).

Regarding `CC[C@H](C)[C@H](NC(=O)[C@H](CC(C)C)NC(=O)[C@H](Cc1c[nH]c2ccccc12)NC(=O)CNC(=O)[C@H](NC(=O)[C@H](N)CCCCN)C(C)C)C(=O)N[C@@H](CCC(N)=O)C(=O)N[C@@H](CC(C)C)C(=O)N[C@@H](Cc1ccccc1)C(=O)N[C@@H](Cc1c[nH]cn1)C(=O)N[C@H](CCCCN)C(=O)N[C@H](CCCCN)C(=O)O` [XMP.445] (H-[dK][dV]GWLIQLFH[dK][dK]-OH; N-terminus and C-terminus assumed), the “intestinal absorption screening outcome” value in the series with CACO-2 and MDCK cells was “potential orally available compound”. For the same compound, the “mortality vs dextrose-treated controls” value in the series with Candida albicans, SLU-1 (oral gavage 10 mg/kg every other day) was “significant improvement (p-value of 0.025)”. The “mortality vs dextrose-treated controls” value in the series on Candida albicans, SLU-1 (oral gavage 10 mg/kg or 20 mg/kg every other day) is recorded as “improvements in mortality compared with the dextrose-treated controls”. Moreover, the “oral activity (study conclusion)” value with Candida albicans, SLU-1 (mice systemically infected with C. albicans, oral gavage) is recorded as “has oral antifungal activity”. For the same compound, in series [2], the “concentration at which loss of fungal cell viability occurs” value is on record as “about 4 μg/mL” and the “change in DiOC6(3) fluorescence intensity (mean channel from baseline) vs. concentration” value was “concentration-dependent increase in fluorescence intensity”. Further, in series [1], the “change in DiOC6(3) fluorescence intensity in mammalian cells” value is listed as “no substantial increase in fluorescence intensity”. For the same compound, in the series on C. albicans SLU#1, the “fungal cell viability by PI uptake” value was “reduction of fungal cell viability or fungal cell death”. In addition, in the series with fungal cells, the “fluorescence intensity and localization by confocal microscopy vs untreated cells” value is given as “increased fluorescence intensity that was localized at the mitochondria”. The compound also displayed a minimum fungicidal concentration in the series on C. albicans SLU#1 strain of 4 µg/mL (≈ 2.67 µM). Also, the “mammalian cell viability by PI uptake” value in the series with MDCK cells (MDCK cells, PI, XMP.445 even at a concentration of 50-fold or greater) is given as “did not substantially affect viability of mammalian cells”.

`Clc1ccc(COC(Cn2ccnc2)c2ccc(Cl)cc2Cl)c(Cl)c1` (stereo not drawn) [miconazole, reference compound]: in series [2], the “concentration at which loss of fungal cell viability occurs” value is “less than or equal to 1 μg/mL” and the “change in DiOC6(3) fluorescence intensity (mean channel from baseline) vs. concentration” value was “concentration-dependent increase in fluorescence intensity”. In addition, the “mammalian cell viability by PI uptake” value with MDCK cells is “increase in fluorescence intensity indicating cell death”.

On to gentamicin, for which, in [3], the “concentration that produces a toxic effect” value was 12000 ng/mL. The “concentration required to produce a therapeutic effect” value in the series with bacterial growth was 8 µg/mL.
